Values of other authors in publication PMC6572293, “Antihypertensive Effects of Corn Silk Extract and Its Novel Bioactive Constituent in Spontaneously Hypertensive Rats: The Involvement of Angiotensin-Converting Enzyme Inhibition” (Molecules, 2019).

Conditions: from Coix glutelin; cited from earlier work
Excerpt: Food peptides with anti-ACE activities have been identified from plants and animals. For example, oligopeptides FDGIP and AIDPVRA are ACE inhibitor derived from Caulerpa lentillifera. […] Peptides from auto-digested reishi (Ganoderma lingzhi) extract show potent inhibition against ACE and hypotensive activities in SHRs. Lacto-tr ...

Substance: GAAGGAF
- Antihypertensive effect (in words): significant antihypertensive effect
